The source made the active and inactive calls.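 The calls were made as follows: active = chemicals rated mutagenic or weakly mutagenic in the Salmonella bacterial test by one literature review, or positive overall by another; inconclusive = no clear call, values can overlap the other calls; inactive = the rest.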
Test system: Salmonella typhimurium Ames mutagenicity, literature compiled
Assay: DSSTox (CPDBAS) Carcinogenic Potency Database Salmonella Mutagenicity
Procedure, shortened: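 Calls derive from published evaluations rather than new testing; overall "positive" in EPA Gene-Tox, or "mutagenic"/"weakly mutagenic" per Zeiger, counts as active.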

NC(=O)/C(=C\c1ccc([N+](=O)[O-])o1)c1ccco1
outcome: active

Nc1ncn[nH]1
outcome: inactive; active

COC(=O)C1=CCCN(N=O)C1
outcome: active

Nc1ccc(Nc2ccccc2)cc1
outcome: inactive; active

CCCCCCCCCCCCCCCC(=O)OC/C=C(C)/C=C/C=C(C)/C=C/C1=C(C)CCCC1(C)C
outcome: inactive; active

CC1CN(N=O)C(=O)NC1=O (stereo not drawn)
outcome: active

CN1CCCC1=O
outcome: inactive; active

O=CNc1nc(-c2ccc([N+](=O)[O-])o2)cs1
outcome: active; inactive

CN(Cc1cnc2nc(N)nc(N)c2n1)c1ccc(C(=O)N[C@@H](CCC(=O)O)C(=O)O)cc1
outcome: inactive

CC(O)COC(C)(C)C (stereo not drawn)
outcome: active; inactive

CNC(=O)O/N=C/C(C)(C)SC
outcome: inactive

C[C@@H]1O[C@@H](OC[C@H]2O[C@@H](Oc3c(-c4ccc(O)c(O)c4)oc4cc(O)cc(O)c4c3=O)[C@H](O)[C@@H](O)[C@@H]2O)[C@H](O)[C@H](O)[C@H]1O
outcome: active; inactive

O=NN1CCN(N=O)CC1
outcome: active; inactive

C=C(C)C#N
outcome: inactive; active

C=COC(C)=O
outcome: inactive

CCCCCCc1ccc(O)cc1O
outcome: inactive; active

Nc1cc(Cl)cc(C(=O)O)c1Cl
outcome: active

ClCCl
outcome: active; inactive

CC/C(=C(/CC)c1ccc(O)cc1)c1ccc(O)cc1
outcome: inactive

O=Cc1ccco1
outcome: active; inactive

COP(=O)(OC)OC
outcome: active; inactive

Oc1ccc(Cl)cc1Cl
outcome: inactive; active

CCN(N=O)C(N)=O
outcome: active; inactive

CC1=C2C(=CO[C@@H](C)[C@@H]2C)C(=O)C(C(=O)O)=C1O
outcome: inactive; active

Clc1ccc(Cl)cc1
outcome: inactive

COC(=O)C(c1ccccc1)C1CCCCN1 (stereo not drawn)
outcome: inactive

CCBr
outcome: active

CCOc1ccc2c(c1)C(C)=CC(C)(C)N2
outcome: inactive; active

Cc1cc2ncccc2c2nc(N)n(C)c12
outcome: active

Cc1cc(C)nc(NS(=O)(=O)c2ccc(N)cc2)n1
outcome: inactive

C[C@]12C=CC(=O)C=C1CC[C@@H]1[C@@H]2[C@@H](O)C[C@@]2(C)[C@H]1CC[C@]2(O)C(=O)CO
outcome: inactive; active

CNC(=S)N(C)C
outcome: inactive; active

C=Cc1cccc(C)c1
outcome: inactive; active

OO
outcome: active

C=CC(=C)C
outcome: inactive

C=CC=O
outcome: active; inactive

O=C(O)C(Cl)Cl
outcome: active

Nc1ccc(Sc2ccc(N)cc2)cc1
outcome: active; inactive

c1ccc(-c2ccccc2)cc1
outcome: inactive

C[N+](C)(C)CCCl
outcome: inactive; active

C1OC1C1CO1 (stereo not drawn)
outcome: active

c1ccc(N=Nc2ccccc2)cc1
outcome: active

CNC(=O)CSP(=S)(OC)OC
outcome: active
